ChEMBL document CHEMBL1137346, “Carbonic anhydrase inhibitors: clash with Ala65 as a means for designing inhibitors with low affinity for the ubiquitous isozyme II, exemplified by the crystal structure of the topiramate sulfamide analogue” (J Med Chem, 2006)

Key:
Carbonic anhydrase 4 = Carbonic anhydrase 4 (Homo sapiens, UniProt P22748)
[1] = biological target: Carbonic anhydrase 5A, mitochondrial (Homo sapiens, UniProt P35218)
[2] = biological target: Carbonic anhydrase 5B, mitochondrial (Homo sapiens, UniProt Q9Y2D0)
Chain of Carbonic anhydrase 5B, mitochondrial (Q9Y2D0 whole entry): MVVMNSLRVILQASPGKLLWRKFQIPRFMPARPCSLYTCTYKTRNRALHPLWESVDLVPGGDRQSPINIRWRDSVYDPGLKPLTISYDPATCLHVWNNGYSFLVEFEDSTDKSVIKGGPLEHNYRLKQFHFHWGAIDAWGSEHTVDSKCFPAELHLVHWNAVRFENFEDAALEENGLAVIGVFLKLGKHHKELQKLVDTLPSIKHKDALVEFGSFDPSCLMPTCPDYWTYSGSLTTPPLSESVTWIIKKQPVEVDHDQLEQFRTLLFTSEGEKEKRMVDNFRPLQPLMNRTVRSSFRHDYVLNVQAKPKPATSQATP

Carbonic anhydrase 7 = Carbonic anhydrase 7 (Homo sapiens, UniProt P43166)
Chain of Carbonic anhydrase 7 (P43166 whole entry): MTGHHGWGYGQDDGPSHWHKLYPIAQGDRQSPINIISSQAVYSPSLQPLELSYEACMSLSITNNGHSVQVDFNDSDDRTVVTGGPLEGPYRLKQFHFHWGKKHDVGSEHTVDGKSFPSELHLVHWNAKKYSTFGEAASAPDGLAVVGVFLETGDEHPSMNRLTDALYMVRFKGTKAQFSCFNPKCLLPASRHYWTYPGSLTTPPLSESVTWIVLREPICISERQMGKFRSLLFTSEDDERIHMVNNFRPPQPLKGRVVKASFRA

Carbonic anhydrase 13 = Carbonic anhydrase 13 (Mus musculus, UniProt Q9D6N1)
Chain of Carbonic anhydrase 13 (Q9D6N1 whole entry): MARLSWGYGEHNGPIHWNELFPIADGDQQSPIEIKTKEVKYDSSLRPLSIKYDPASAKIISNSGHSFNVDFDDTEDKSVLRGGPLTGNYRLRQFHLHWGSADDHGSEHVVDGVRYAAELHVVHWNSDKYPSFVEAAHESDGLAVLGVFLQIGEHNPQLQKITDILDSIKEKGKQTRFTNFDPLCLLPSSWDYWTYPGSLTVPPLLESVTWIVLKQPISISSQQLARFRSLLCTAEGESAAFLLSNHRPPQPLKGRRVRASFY

Carbonic anhydrase 14 = Carbonic anhydrase 14 (Homo sapiens, UniProt Q9ULX7)
Chain of Carbonic anhydrase 14 (Q9ULX7 whole entry): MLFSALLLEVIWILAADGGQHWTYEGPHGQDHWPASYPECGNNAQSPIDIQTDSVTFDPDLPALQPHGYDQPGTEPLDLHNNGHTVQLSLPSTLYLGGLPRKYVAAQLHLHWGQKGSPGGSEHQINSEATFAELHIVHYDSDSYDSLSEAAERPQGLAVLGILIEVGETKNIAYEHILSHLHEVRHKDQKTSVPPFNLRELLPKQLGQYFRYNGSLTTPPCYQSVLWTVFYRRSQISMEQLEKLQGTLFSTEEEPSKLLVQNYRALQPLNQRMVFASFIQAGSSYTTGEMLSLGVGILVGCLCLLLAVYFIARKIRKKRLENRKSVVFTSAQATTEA

Chain of Carbonic anhydrase 4 (P22748 whole entry): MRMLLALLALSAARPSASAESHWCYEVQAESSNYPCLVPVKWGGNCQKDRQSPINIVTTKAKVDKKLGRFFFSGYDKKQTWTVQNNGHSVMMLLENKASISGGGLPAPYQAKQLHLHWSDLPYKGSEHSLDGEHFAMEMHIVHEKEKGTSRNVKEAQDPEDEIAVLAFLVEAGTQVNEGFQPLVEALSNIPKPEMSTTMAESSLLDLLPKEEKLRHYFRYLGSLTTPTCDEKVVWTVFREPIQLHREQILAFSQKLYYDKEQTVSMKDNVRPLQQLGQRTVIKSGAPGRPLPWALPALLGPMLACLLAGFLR
Chain of Carbonic anhydrase 5A, mitochondrial (P35218 whole entry): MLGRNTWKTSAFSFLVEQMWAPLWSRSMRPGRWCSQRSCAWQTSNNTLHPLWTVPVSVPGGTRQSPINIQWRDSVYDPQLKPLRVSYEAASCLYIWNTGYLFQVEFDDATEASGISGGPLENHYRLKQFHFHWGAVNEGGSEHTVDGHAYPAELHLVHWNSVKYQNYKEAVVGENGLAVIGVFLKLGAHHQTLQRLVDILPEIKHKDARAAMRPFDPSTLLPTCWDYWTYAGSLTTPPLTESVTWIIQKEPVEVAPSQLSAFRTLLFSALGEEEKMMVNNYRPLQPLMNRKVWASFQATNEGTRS

Ki (Carbonic anhydrase 4): 941 nM
Ki [1]: 32 nM
Ki [2]: 21 nM
Ki (Carbonic anhydrase 7): 35 nM
Ki (Carbonic anhydrase 13): 30 nM
Ki (Carbonic anhydrase 14): 25 nM
SMILES: CC1(C)O[C@@H]2[C@@H](CO[C@@]3(CNS(N)(=O)=O)OC(C)(C)O[C@@H]23)O1
